No end group written: not given here.
Columns and labels:
Type in all cases: in vivo
[1] = tested on: insulin deficient rats (alloxan and streptozotocin); assay: Liver glycogen after oral GLP-1 in alloxan/streptozotocin treated rats; conditions: Dose GLP-1 0.01 mg/rat, 2 hours post dosing
Description: Rats were fasted overnight. Subsequently, 800 mg each of alloxan and streptozotocin were dissolved in 40 mL of PBS (pH 7, 0.01M). The fasted rats were then treated immediately with a 0.5 mL IP dose to induce insulin deficiency. The animals were then stabilized overnight with water and food. Following stabilization, the rats were fasted overnight to deplete liver glycogen.
Subsequently, the rats were administered 1.5 g glucose/kg body weight and GLP-1 in the form of a GLP-1 associated with a composition comprising approximately 62 mole percent 1,2 distearoyl-sn-glycero-3-phosphocholine, approximately 22 mole percent dihexadecyl phosphate, and approximately 16 mole percent cholesterol (“associated GLP-1”). In separate experiments, the amount of associated GLP-1 was varied. Liver glycogen was measured chemically at 2 hours post dosing.
As a control, unassociated GLP-1 was gavaged in place of associated GLP-1. In a separate control, GLP-1, in a dose similar to that orally gavaged, was injected intraperitoneally.

[2] = tested on: mice made diabetic by streptozotocin and alloxan; assay: Blood glucose after oral dosing via drinking water in alloxan-streptozotocin treated mice; conditions: day seven, 0.1 U/ml in drinking water, tail-vein blood
From the text: Mice used in the present experiment were made diabetic by administering streptozotocin and alloxan. The diabetic animals were then divided into two groups. The control group (11 mice) was orally dosed with regular insulin. The experimental group (7 mice) was orally dosed with a composition comprising insulin and approximately 61 mole percent 1,2 distearoyl-sn-glycero-3-phosphocholine, approximately 22 mole percent dihexadecyl phosphate, approximately 16 mole percent cholesterol, and approximately 1 mole percent poly[Cr-bis(N-2,6-diisopropylphenylcarbamoylmethyl iminodiacetic acid)] (wherein a known portion of the phospholipid component comprised ^14C labeled phospholipid). Dosing was accomplished utilizing the water bottle dosing method described in Experiment 2.
After being made diabetic, […] in both groups were treated identically over a 7 day period and fed with plain food and plain water. Following this 7 day period, rats in the control group were treated for an additional 7 day experimental period with food and regular insulin in the available drinking water at 0.1 U/ml. Over the same 7 day experimental period, the experimental group was fed regular food with the composition of the invention available in the drinking water at 0.1 U/ml. At the end of each 7-day period, blood glucose was measured in a tail-vein sample of blood by a Beckman Blood Glucose Analyzer.

normal, fasted rats = assay: Blood calcium levels after calcitonin administration; conditions: subcutaneous injection, control rats
Description: Normal, fasted, control rats were given a dose of salmon calcitonin via subcutaneous injection such that an initial 10% reduction in blood calcium was observed. Blood calcium levels were then measured for six hours post injection. An experimental group of rats was given the same effective dose of calcitonin by oral gavage, in the form of a composition comprising calcitonin and approximately 62 mole percent 1,2 distearoyl-sn-glycero-3-phosphocholine, approximately 22 mole percent dihexadecyl phosphate, and approximately 16 mole percent cholesterol. Blood calcium levels were followed for six hours (FIG. 8). […] This difference was statistically significant (FIG. 8).

GLP-1: unassociated GLP-1 peptide, gavaged or injected intraperitoneally as control (HAEGTFTSDVSSYLEGQAAKEFIAWLVKGR; ends and bridges not checked; UniProt P01275 98-127, looked up)
Liver Glycogen ([1]; intraperitoneal): 59 ± 44 mg/g liver
Liver Glycogen ([1]; oral gavage): 40 ± 22 mg/g liver

regular insulin: regular insulin orally dosed to the control group in drinking water
blood glucose [2]: not altered at all

salmon calcitonin
initial reduction in blood calcium (normal, fasted rats): 10%
